{"source": "paper PMC8880997", "about": "“Structure and ion-release mechanism of PIB-4-type ATPases” (eLife, 2021)", "key": {"sCoaT [1]": {"target": "T1, sCoaT (Sulfitobacter sp. NAS-14.1, UniProt A0ABF7PH95)", "T1 sequence (A0ABF7PH95 1-682)": "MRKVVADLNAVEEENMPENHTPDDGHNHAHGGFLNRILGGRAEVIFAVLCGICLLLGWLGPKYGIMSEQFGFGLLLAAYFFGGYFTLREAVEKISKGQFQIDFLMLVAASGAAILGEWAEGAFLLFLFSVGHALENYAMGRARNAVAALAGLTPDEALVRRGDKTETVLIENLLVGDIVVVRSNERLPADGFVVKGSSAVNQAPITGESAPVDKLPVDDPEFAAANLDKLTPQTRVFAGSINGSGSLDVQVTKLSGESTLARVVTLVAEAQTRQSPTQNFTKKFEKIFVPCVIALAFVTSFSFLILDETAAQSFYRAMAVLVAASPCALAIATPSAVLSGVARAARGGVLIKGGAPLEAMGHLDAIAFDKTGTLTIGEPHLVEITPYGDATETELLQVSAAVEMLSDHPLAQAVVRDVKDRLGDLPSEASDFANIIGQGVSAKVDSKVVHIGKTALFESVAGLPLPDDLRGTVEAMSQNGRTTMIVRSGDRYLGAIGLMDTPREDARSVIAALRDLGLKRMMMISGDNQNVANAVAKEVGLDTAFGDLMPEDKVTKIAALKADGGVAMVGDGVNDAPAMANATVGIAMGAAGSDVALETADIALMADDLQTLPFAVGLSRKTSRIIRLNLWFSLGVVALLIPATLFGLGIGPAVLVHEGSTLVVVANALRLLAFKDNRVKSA", "test": "X-ray crystallography, […]-3.[…] Å", "type": "binding", "parameters": "gene NAS141_02821; residues before about 40-47 not modelled", "conditions": "phosphate analogue at the phosphorylation site; formed from AlCl3 and NaF with EGTA, metal-free; E2.Pi state"}, "SsZntA": {"target": "T2, SsZntA (Shigella sonnei, UniProt Q3YW59)", "T2 construct": "gene zntA; purified as in Wang et al., 2014", "T2 sequence (Q3YW59 1-732)": "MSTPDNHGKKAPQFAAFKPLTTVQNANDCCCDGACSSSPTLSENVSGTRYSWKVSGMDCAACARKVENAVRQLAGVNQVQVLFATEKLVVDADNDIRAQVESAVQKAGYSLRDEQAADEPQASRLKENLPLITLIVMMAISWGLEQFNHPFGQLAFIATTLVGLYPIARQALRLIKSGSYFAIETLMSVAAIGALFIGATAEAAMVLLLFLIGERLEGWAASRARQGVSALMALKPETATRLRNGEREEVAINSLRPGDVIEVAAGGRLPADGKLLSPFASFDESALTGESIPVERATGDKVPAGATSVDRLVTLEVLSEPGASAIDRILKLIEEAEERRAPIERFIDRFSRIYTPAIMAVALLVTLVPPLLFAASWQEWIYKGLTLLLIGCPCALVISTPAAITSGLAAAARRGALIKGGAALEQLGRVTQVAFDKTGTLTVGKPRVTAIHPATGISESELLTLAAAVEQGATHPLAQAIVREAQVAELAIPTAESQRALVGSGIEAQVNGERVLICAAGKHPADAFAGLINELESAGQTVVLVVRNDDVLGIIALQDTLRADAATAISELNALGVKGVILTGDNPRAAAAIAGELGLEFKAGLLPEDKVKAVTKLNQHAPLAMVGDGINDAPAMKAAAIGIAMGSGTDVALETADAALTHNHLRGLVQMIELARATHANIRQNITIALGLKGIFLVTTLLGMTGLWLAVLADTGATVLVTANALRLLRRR", "test": "Baginski ATPase assay (Pi release) in lipid-detergent", "type": "biochemical", "conditions": "5 mM ATP, Zn2+ or Cd2+, 5 mM MgCl2, Tris-HCl pH 7.5, 37 °C; KCl titration"}, "sCoaT [2]": {"target": "T1, sCoaT", "parameters": "gene NAS141_02821", "conditions": "phosphate analogue at the phosphorylation site; formed from BeSO4 and NaF with EGTA, metal-free; late E2P state"}}, "data": [{"smiles": "[F][Al-]([F])([F])[F]", "note": "[AlF4^−]", "values": [{"measurement": "X-ray crystallography, 3.2-3.3 Å", "setting": "sCoaT [1]", "value": "structures of sCoaT in metal-free conditions supplemented with two different phosphate analogues, BeF3^− and AlF4^−"}]}, {"smiles": "Nc1ncnc2c1ncn2[C@@H]1O[C@H](COP(=O)(O)OP(=O)(O)OP(=O)(O)O)[C@@H](O)[C@H]1O", "note": "[ATP]", "values": [{"measurement": "Baginski ATPase assay (Pi release) in lipid-detergent", "setting": "SsZntA", "value": "Functional ATPase assay in lipid–detergent solution of sCoaT (wild-type and D601K forms) as well as SsZntA"}]}, {"smiles": "[F][Be-]([F])[F]", "note": "[BeF3^−]", "values": [{"measurement": "X-ray crystallography, 3.1 Å", "setting": "sCoaT [2]", "value": "structures of sCoaT in metal-free conditions supplemented with two different phosphate analogues, BeF3^− and AlF4^−"}]}]}
